Like-named read-outs stand apart in the source and are kept apart here.
Target: T1, serotonin 5-HT6 receptors (Homo sapiens, UniProt P50406)
T1 construct: expressed in transfected cells; host or cells: HeLa cells (membranes)
Test: [3H]LSD displacement from 5-HT6 receptors expressed in HeLa cell membranes
Type: binding
Conditions: for Interaction efficiency of compounds of the general formula 1 with 5-HT6 receptor, %: displacement of 1.5 nM [3H]LSD, tested compounds at 10 mkM, 2 hr at 37° C.
Description: Investigation of ligand activity of azaheterocyclic compounds of the general formula 1 to 5-HT6 receptor. A focused library, including 3537 azaheterocyclic compounds of the general formula 1, their geometric isomers and pharmaceutically acceptable salts were tested for ligand activity to 5-HT6 receptor. Some examples of the tested azaheterocyclic compounds of the general formula 1 are represented in Tables 1-3, including: pyrrolo[4,3-b]indoles 1.2, 1.3 (Table 1), γ-carbolines 1.5, 1.6, 1.7 (Table 2) and azepino[4,3-b]indoles 1.10, 1.12, 1.13 (Tables 3). Ligand activity was determined by the ability of azaheterocyclic compounds of the general formula 1 to displace concurrently tritium-labelled diethyl […] of lysergic acid ([^3H]LSD), specifically bound to serotonin 5-HT6 receptors, which are expressed in HeLa cells membranes [Monsma F J Jr, Shen Y, Ward R P, Hamblin M W and Sibley D R (1993). Cloning and expression of a novel serotonin receptor with high affinity for tricyclic psychotropic drugs. Mol. Pharmacol. 43:320-3271. Cells membranes were incubated with 1.5 nM [^3H]LSD for 2 hr at 37° C. without and in the presence of tested compounds of 10 mkM concentration in the medium comprising: 50 mM Tris-HCl, pH 7.4, 150 mM NaCl, 2 mM ascorbic acid and 0.001% of bovine serum albumin. Nonspecific binding of [^3H]LSD was determined in the presence of 5 mkM of serotonin (5-HT). After incubation membrane suspensions were filtered through glass microfiber filters GF/A (Millipor, USA) and the residual radioactivity was measured by scintillation counter Microbeta 1840 (PerkinElmer). Investigated compounds interacted effectively with 5-HT6 receptor.
Measurements were carried out as it is described in example 1, except that the tested compounds were taken in various concentrations and % of displacement of [^3H]LSD was plotted as a function of compound's concentration (FIG. 1), on the basis of which IC50 (concentration of halfmaximum blocking of [^3H]LSD binding) values characterizing the seeming affinity of substituted azaheterocyclic compounds of the general formula 1 to 5-HT6 receptor were calculated (Table 5).

[1] = [3H]LSD displacement at various compound concentrations, HeLa cell membranes, read-out: IC50 (concentration of halfmaximum blocking of [3H]LSD binding), seeming affinity to 5-HT6 receptor

T1 sequence (P50406 whole entry): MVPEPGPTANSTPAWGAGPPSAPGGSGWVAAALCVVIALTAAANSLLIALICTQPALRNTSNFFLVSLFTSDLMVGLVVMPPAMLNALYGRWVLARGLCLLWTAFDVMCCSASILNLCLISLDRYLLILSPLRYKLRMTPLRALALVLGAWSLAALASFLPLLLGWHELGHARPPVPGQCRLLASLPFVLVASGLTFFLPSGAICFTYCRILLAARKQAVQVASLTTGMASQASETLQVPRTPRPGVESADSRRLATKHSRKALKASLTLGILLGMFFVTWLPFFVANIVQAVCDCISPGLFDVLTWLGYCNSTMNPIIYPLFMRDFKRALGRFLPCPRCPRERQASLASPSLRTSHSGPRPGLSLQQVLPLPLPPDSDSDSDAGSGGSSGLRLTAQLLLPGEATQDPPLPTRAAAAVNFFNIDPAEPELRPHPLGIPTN

Compound	Interaction efficiency of compounds of the general formula 1 with 5-HT6 receptor, % (HeLa cell membranes) [%]	IC50 [1] [nM]	IC50 [nM]
Cc1ccc2c(c1)C1CN(C)CCC1N2S(=O)(=O)c1nc2cc(C)nc(C)n2n1 (centres unmarked) [1.6(22)]	82		
Cc1ccc2c(c1)[C@@H]1CNCCC[C@@H]1N2CCc1cccnc1 [1.12(12)]	84		
Cc1ccc2c(c1)[C@@H]1CN(C)CCC[C@H]1N2CCc1ccc(C)nc1 [1.13(3)]	93		
Cc1ccc2c(c1)[C@@H]1CNCCC[C@@H]1N2CCc1ccc(C)nc1 [1.12(13)]	76		
CN1CCc2c(c3ccccc3n2Cc2ccccc2)C1 [1.5(18)]	71		
Cc1ccc2c(c1)c1c(n2CCc2ccc(C)nc2)CCN(C)C1 [1.5(20)]	100	74	
Cc1ccc2c(c1)[C@@H]1CN(C)CCC[C@H]1N2CCc1cccnc1 [1.13(13)]	93		787
Cc1ccc2c(c1)c1c(n2CCc2ccncc2)CCCN(C)C1 [1.10(51)]	84	1060	
Cc1ccc2c(c1)c1c(n2CCc2ccccn2)CCCN(C)C1 [1.10(49)]	88		
Cc1ccc2c(c1)c1c(n2CCc2cccnc2)CCCN(C)C1 [1.10(53)]	79	738	
Cc1ccc(CCn2c3c(c4cc(C)ccc42)CN(C)CCC3)nc1 [1.10(50)]	84	1250	
Cc1ccc2c(c1)[C@@H]1CN(C)C[C@@H]1N2CCc1ccc(C)nc1 [1.3(9)]	27		
Cc1ccc2c(c1)C1CN(C)CCC1N2C(=O)c1ccccc1 (centres unmarked) [1.6(6)]	52		
Cc1ccc(S(=O)(=O)n2c3c(c4cc(C)ccc42)CN(C)C3)cc1 [1.2(39)]	77		
Cc1ccc2c(c1)[C@@H]1CN(C)CC[C@@H]1N2C(=O)Nc1cccc(C(F)(F)F)c1 [1.7(1)]	47		

From patent US20110046368A1, “LIGANDS OF 5-HT6 RECEPTORS, A PHARMACEUTICAL COMPOSITION, METHOD FOR THE PRODUCTION AND USE THEREOF” (priority 2006, published 2011)
